Tested on: ischemia-reperfusion BBB model
Assay: Effects of radical scavenger edaravone on ischemia-reperfusion BBB model (TEER and Na—F permeability)
Type: cell-based, rat
Conditions: edaravone added at the end of the 6 h ischemia period; 3 h reperfusion; FIG. 10
Method: TEER was measured with ENDOHM (manufactured by WPI). Then, the experiment on Na—F permeability was conducted.
1/PSapper=1/PSmembrane+1/PStrans.
FIG. 4 is a graph showing variation per day of transendothelial electrical resistance value measurement results of 7 coculture models prepared by the method shown in Example 4. FIG. 5 is a graph comparing transendothelial electrical resistance value measurement results among 7 coculture models prepared by the method shown in Example 4. Transendothelial Electrical Resistance (TEER) was measured with ENDOHM (manufactured by WPI). The electrical resistance value of each BBB model was measured from 2 to 7 days after model preparation. The TEER values of E00, E0A, and E0P were calculated by subtracting therefrom the electrical resistance value of only the membrane. The TEER values of EA0 ad EAP were calculated by subtracting therefrom the electrical resistance value of the membrane on which only the astrocytes were cultured. The TEER values of EP0 ad EPA were calculated by subtracting therefrom the electrical resistance value of the membrane on which only the pericytes were cultured. […]

## CC1=NN(c2ccccc2)C(=O)C1 [edaravone]
  reduction in TEER attributed to ischemia-reperfusion (reduction in tight junction function): significantly suppressed
  rise in Na—F permeability attributed to ischemia-reperfusion (reduction in tight junction function): significantly suppressed
